Test results: PubChem BioAssay (NCI)
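Cultured in 96-well plates, cells were exposed to test compound for 48 hours across five concentrations. TGI marks complete inhibition of growth.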

Tests used:
Assay in all cases: growth of human tumour cells (NCI), 48 h
OVCAR-8 ovarian = tested on: OVCAR-8 ovarian
UO-31 renal = tested on: UO-31 renal
NCI-H522 lung = tested on: NCI-H522 lung
BT-549 breast = tested on: BT-549 breast
MDA-N = tested on: MDA-N
HCC-2998 colon = tested on: HCC-2998 colon
SW-620 colon = tested on: SW-620 colon
CAKI-1 renal = tested on: CAKI-1 renal
HOP-92 NSCLC = tested on: HOP-92 NSCLC
786-0 renal = tested on: 786-0 renal
SK-MEL-5 melanoma = tested on: SK-MEL-5 melanoma
DU-145 prostate = tested on: DU-145 prostate
NCI/ADR-RES ovarian = tested on: NCI/ADR-RES ovarian
MDA-MB-435 = tested on: MDA-MB-435
HS 578T breast = tested on: HS 578T breast
RPMI-8226 leukemia = tested on: RPMI-8226 leukemia
T-47D breast = tested on: T-47D breast
HL-60(TB) leukemia = tested on: HL-60(TB) leukemia
MALME-3M melanoma = tested on: MALME-3M melanoma
MCF7 breast = tested on: MCF7 breast
SN12C renal = tested on: SN12C renal
U251 CNS = tested on: U251 CNS
HOP-62 NSCLC = tested on: HOP-62 NSCLC
IGROV1 ovarian = tested on: IGROV1 ovarian
A549 NSCLC = tested on: A549 NSCLC
KM12 colon = tested on: KM12 colon
SNB-19 CNS = tested on: SNB-19 CNS
UACC-257 melanoma = tested on: UACC-257 melanoma
HCT-116 colon = tested on: HCT-116 colon
SK-MEL-2 melanoma = tested on: SK-MEL-2 melanoma
RXF 393 renal = tested on: RXF 393 renal
OVCAR-5 ovarian = tested on: OVCAR-5 ovarian
MDA-MB-231 breast = tested on: MDA-MB-231 breast
SR leukemia = tested on: SR leukemia
OVCAR-3 ovarian = tested on: OVCAR-3 ovarian
HT29 colon = tested on: HT29 colon
M14 melanoma = tested on: M14 melanoma
SF-268 CNS = tested on: SF-268 CNS
SF-295 CNS = tested on: SF-295 CNS
LOX IMVI melanoma = tested on: LOX IMVI melanoma
SF-539 CNS = tested on: SF-539 CNS
NCI-H23 lung = tested on: NCI-H23 lung
HCT-15 colon = tested on: HCT-15 colon
K-562 leukemia = tested on: K-562 leukemia
EKVX NSCLC = tested on: EKVX NSCLC
SK-MEL-28 melanoma = tested on: SK-MEL-28 melanoma
NCI-H226 lung = tested on: NCI-H226 lung
NCI-H460 lung = tested on: NCI-H460 lung
COLO 205 colon = tested on: COLO 205 colon
UACC-62 melanoma = tested on: UACC-62 melanoma
TK-10 renal = tested on: TK-10 renal
MOLT-4 leukemia = tested on: MOLT-4 leukemia
PC-3 prostate = tested on: PC-3 prostate
OVCAR-4 ovarian = tested on: OVCAR-4 ovarian
ACHN renal = tested on: ACHN renal
SK-OV-3 ovarian = tested on: SK-OV-3 ovarian
SNB-75 CNS = tested on: SNB-75 CNS
A498 renal = tested on: A498 renal
CCRF-CEM leukemia = tested on: CCRF-CEM leukemia

SMILES: CC[C@@H]1CSC(/C=C/C2OC3OC(C)(C)OC3C3OC(C)(C)OC23)=N1 (some centres not stated)
- TGI (OVCAR-8 ovarian): 23.8 µM
- TGI (UO-31 renal): 22.8 µM
- TGI (NCI-H522 lung): 12.1 µM
- TGI (BT-549 breast): 13.4 µM
- TGI (MDA-N): 21.3 µM
- TGI (HCC-2998 colon): 12.7 µM
- TGI (SW-620 colon): 11.2 µM
- TGI (CAKI-1 renal): 28.6 µM
- TGI (HOP-92 NSCLC): 19.2 µM
- TGI (786-0 renal): 15.9 µM
- TGI (SK-MEL-5 melanoma): 20 µM
- TGI (DU-145 prostate): 5.19 µM
- TGI (NCI/ADR-RES ovarian): 95.7 µM
- TGI (MDA-MB-435): 20 µM
- TGI (HS 578T breast): 75.2 µM
- TGI (RPMI-8226 leukemia): 32.5 µM
- TGI (T-47D breast): 16.8 µM
- TGI (HL-60(TB) leukemia): 5.67 µM
- TGI (MALME-3M melanoma): 23.8 µM
- TGI (MCF7 breast): 16.8 µM
- TGI (SN12C renal): 23.9 µM
- TGI (U251 CNS): 26.4 µM
- TGI (HOP-62 NSCLC): 59.4 µM
- TGI (IGROV1 ovarian): 26 µM
- TGI (A549 NSCLC): 49.6 µM
- TGI (KM12 colon): 33.3 µM
- TGI (SNB-19 CNS): 54.8 µM
- TGI (UACC-257 melanoma): 26.4 µM
- TGI (HCT-116 colon): 14.2 µM
- TGI (SK-MEL-2 melanoma): 29.8 µM
- TGI (RXF 393 renal): 9.59 µM
- TGI (OVCAR-5 ovarian): 22.8 µM
- TGI (MDA-MB-231 breast): 25.7 µM
- TGI (SR leukemia): 37.4 µM
- TGI (OVCAR-3 ovarian): 16.7 µM
- TGI (HT29 colon): 15.9 µM
- TGI (M14 melanoma): 22.9 µM
- TGI (SF-268 CNS): 18.8 µM
- TGI (SF-295 CNS): 46.6 µM
- TGI (LOX IMVI melanoma): 20.6 µM
- TGI (SF-539 CNS): 30.4 µM
- TGI (NCI-H23 lung): 23.1 µM
- TGI (HCT-15 colon): 15.3 µM
- TGI (K-562 leukemia): 62.4 µM
- TGI (EKVX NSCLC): 25.6 µM
- TGI (SK-MEL-28 melanoma): 34.7 µM
- TGI (NCI-H226 lung): 35.9 µM
- TGI (NCI-H460 lung): 61.2 µM
- TGI (COLO 205 colon): 18 µM
- TGI (UACC-62 melanoma): 26.8 µM
- TGI (TK-10 renal): 14.6 µM
- TGI (MOLT-4 leukemia): 26.6 µM
- TGI (PC-3 prostate): 26 µM
- TGI (OVCAR-4 ovarian): 17.7 µM
- TGI (ACHN renal): 21.2 µM
- TGI (SK-OV-3 ovarian): 91.4 µM
- TGI (SNB-75 CNS): 29.6 µM

SMILES: COC(=O)[C@@H]1C[C@]2(Br)c3ccccc3N(S(=O)(=O)c3ccccc3)[C@@H]2N1C(=O)OC
- TGI (OVCAR-8 ovarian): > 100 µM
- TGI (UO-31 renal): > 100 µM
- TGI (A498 renal): > 100 µM
- TGI (NCI-H522 lung): > 100 µM
- TGI (BT-549 breast): > 100 µM
- TGI (MDA-N): > 100 µM
- TGI (HCC-2998 colon): > 100 µM
- TGI (SW-620 colon): > 100 µM
- TGI (CAKI-1 renal): > 100 µM
- TGI (HOP-92 NSCLC): > 100 µM
- TGI (786-0 renal): > 100 µM
- TGI (SK-MEL-5 melanoma): > 100 µM
- TGI (DU-145 prostate): > 100 µM
- TGI (NCI/ADR-RES ovarian): > 100 µM
- TGI (MDA-MB-435): > 100 µM
- TGI (HS 578T breast): > 100 µM
- TGI (RPMI-8226 leukemia): > 100 µM
- TGI (T-47D breast): > 100 µM
- TGI (HL-60(TB) leukemia): > 100 µM
- TGI (MALME-3M melanoma): > 100 µM
- TGI (MCF7 breast): > 100 µM
- TGI (SN12C renal): > 100 µM
- TGI (U251 CNS): > 100 µM
- TGI (CCRF-CEM leukemia): > 100 µM
- TGI (HOP-62 NSCLC): > 100 µM
- TGI (IGROV1 ovarian): > 100 µM
- TGI (A549 NSCLC): > 100 µM
- TGI (KM12 colon): > 100 µM
- TGI (SNB-19 CNS): > 100 µM
- TGI (UACC-257 melanoma): 14.6 µM
- TGI (HCT-116 colon): > 100 µM
- TGI (SK-MEL-2 melanoma): > 100 µM
- TGI (RXF 393 renal): 61.8 µM
- TGI (OVCAR-5 ovarian): > 100 µM
- TGI (MDA-MB-231 breast): > 100 µM
- TGI (SR leukemia): > 100 µM
- TGI (OVCAR-3 ovarian): > 100 µM
- TGI (HT29 colon): > 100 µM
- TGI (SF-268 CNS): > 100 µM
- TGI (SF-539 CNS): > 100 µM
- TGI (NCI-H23 lung): > 100 µM
- TGI (HCT-15 colon): > 100 µM
- TGI (K-562 leukemia): > 100 µM
- TGI (EKVX NSCLC): > 100 µM
- TGI (SK-MEL-28 melanoma): > 100 µM
- TGI (NCI-H226 lung): > 100 µM
- TGI (NCI-H460 lung): > 100 µM
- TGI (UACC-62 melanoma): > 100 µM
- TGI (TK-10 renal): > 100 µM
- TGI (MOLT-4 leukemia): > 100 µM
- TGI (PC-3 prostate): > 100 µM
- TGI (OVCAR-4 ovarian): > 100 µM
- TGI (ACHN renal): > 100 µM
- TGI (SK-OV-3 ovarian): > 100 µM
- TGI (SNB-75 CNS): > 100 µM
